The subject of one experiment is SH-SY5Y. The experiment in a line: Cytotoxicity against human SH-SY5Y cells assessed as growth inhibition measured by SRB assay. It is filed as functional, cell-based. A general note: The SRB assay estimates cell density from bound dye.
Experiment [1] is described as follows: Cytotoxicity against human KKUM213 cells assessed as growth inhibition measured by SRB assay. It is filed as functional, cell-based. The settings on record: KKU-M213.
For another experiment, the system named is FaDu. The experiment in a line: Cytotoxicity against human FaDu cells assessed as growth inhibition measured by SRB assay. Type of experiment: functional, cell-based.
The subject of the next experiment is A549. The experiment in a line: Cytotoxicity against human A549 cells assessed as growth inhibition measured by SRB assay. It is filed as functional, cell-based.
Experiment [2] can be described thus: Cytotoxicity against human […] cells assessed as growth inhibition measured by SRB assay. It is filed as cell-based.
The subject of a further experiment is HT-29. The experiment in a line: Cytotoxicity against human HT-29 cells assessed as growth inhibition measured by SRB assay. It is filed as functional, cell-based.
The test system of the next experiment is MDA-MB-231. The experiment in a line: Cytotoxicity against human MDA-MB-231 cells assessed as growth inhibition measured by SRB assay. It is filed as functional, cell-based.

We go through eight compounds from ChEMBL document CHEMBL4819142, “Synthesis of propargylamine mycophenolate analogues and their selective cytotoxic activity towards neuroblastoma SH-SY5Y cell line” (Bioorg Med Chem Lett, 2021).

For orientation: IC50 means the midpoint of a concentration-inhibition curve.

For `COC(=O)CC/C(C)=C/Cc1c(OC)c(C)c2c(c1OCC#CCN(CC#CCOc1c(C/C=C(\C)CCC(=O)OC)c(OC)c(C)c3c1C(=O)OC3)CCC(C)C)C(=O)OC2`, the IC50 in the experiment with SH-SY5Y is 20.6 µM; in experiment [1], 48.3 µM; in the experiment on FaDu it was 46.7 µM; with A549 it was 27.5 µM; in experiment [2], 48.2 µM; in the experiment on HT-29 it was over 50 µM. Besides, in the experiment on MDA-MB-231, the half-maximal inhibitory concentration (IC50) was determined as 48.6 µM.
In the case of `COC(=O)CC/C(C)=C/Cc1c(OC)c(C)c2c(c1OCC#CCN1CCN(C(c3ccc(F)cc3)c3ccc(F)cc3)CC1)C(=O)OC2`, the IC50 was 25.8 µM in the experiment with SH-SY5Y; over 50 µM in experiment [1]; over 50 µM in the experiment with FaDu; 34.1 µM in the experiment on A549; over 50 µM in experiment [2]; over 50 µM in the experiment on HT-29. For the same compound, in the experiment with MDA-MB-231, the 50% inhibitory concentration (IC50) is over 50 µM.
For the compound `COC(=O)CC/C(C)=C/Cc1c(OC)c(C)c2c(c1OCC#CCN1CCN(C(=O)C3COc4ccccc4O3)CC1)C(=O)OC2` (stereo unspecified), the IC50 (with SH-SY5Y; in experiment [1]; with FaDu; in the experiment on A549; in experiment [2]; with HT-29) was over 50 µM in each case. Moreover, the half-inhibitory concentration (IC50) in the experiment on MDA-MB-231 was over 50 µM.
For `C#CCOc1c(C/C=C(\C)CCC(=O)OC)c(OC)c(C)c2c1C(=O)OC2`, the IC50 came out at 3.07 µM in the experiment with SH-SY5Y; 35.7 µM in experiment [1]; 15.2 µM in the experiment with FaDu; 31.8 µM in the experiment on A549; 25.2 µM in experiment [2]; 28.8 µM with HT-29. For the same compound, in the experiment with MDA-MB-231, the IC50 turned out to be 49.2 µM.
For the compound `C=CCN(CC#CCOc1c(C/C=C(\C)CCC(=O)OC)c(OC)c(C)c2c1C(=O)OC2)CC=C`, the 50% inhibitory concentration (IC50) was 36.4 µM in the experiment with SH-SY5Y; over 50 µM in experiment [1]; over 50 µM in the experiment on FaDu; 43.5 µM in the experiment on A549; 36.4 µM in experiment [2]; over 50 µM with HT-29. Also, the IC50 in the experiment with MDA-MB-231 was over 50 µM.
Take `COC(=O)CC/C(C)=C/Cc1c(OC)c(C)c2c(c1OCC#CCN1CCN(Cc3ccc(Cl)cc3)CC1)C(=O)OC2`: the half-inhibitory concentration (IC50) in the experiment with SH-SY5Y is 31.2 µM; in experiment [1] it was over 50 µM; in the experiment on FaDu it was over 50 µM; with A549, over 50 µM; in experiment [2], over 50 µM; in the experiment on HT-29 it was over 50 µM. The IC50 with MDA-MB-231 was over 50 µM.
As for `COC(=O)CC/C(C)=C/Cc1c(OC)c(C)c2c(c1OCC#CCN1CCN(c3ccc(O)cc3)CC1)C(=O)OC2`, the 50% inhibitory concentration (IC50) is 46.1 µM in the experiment on SH-SY5Y; over 50 µM in experiment [1]; over 50 µM with FaDu; over 50 µM in the experiment with A549; over 50 µM in experiment [2]; over 50 µM in the experiment with HT-29. In addition, the IC50 in the experiment with MDA-MB-231 was over 50 µM.
Take `Cc1c2ccncc2c(C)c2c1[nH]c1ccccc12` [ELLIPTECINE]: the half-maximal inhibitory concentration (IC50) was determined as 2.13 µM with SH-SY5Y; 1.97 µM in experiment [1]; 1.85 µM in the experiment with FaDu; 1.16 µM in the experiment with A549; 1.89 µM in experiment [2]; 1.95 µM in the experiment with HT-29. For the same compound, the IC50 in the experiment on MDA-MB-231 amounted to 2.03 µM.
